Laboratory results as given in article PMC9515952, “Tentative exploration of pharmacodynamic substances: Pharmacological effects, chemical compositions, and multi-components pharmacokinetic characteristics of ESZWD in CHF-HKYd rats” (Frontiers in Cardiovascular Medicine, 2022).
Read-outs that look alike come from different tables or passages of the source.

Experiments:
[1] = Stability of four compounds in rat serum (UPLC-MS/MS method validation); settings: n = 5; for Stability, Room temperature, Mean ± SD: 4 h at room temperature (25°C); for Stability, Automatic sampler, Mean ± SD: 8 h in the automatic sampler; for Stability, Long-term freeze, Mean ± SD: 7 d at −80°C; for Stability, Multigelation, Mean ± SD: three freeze and thaw cycles
Method: The stability of all probe drugs was evaluated by LQC and HQC samples under different experimental conditions, including short-term stability [4 h at room temperature (25°C), 8 h in the automatic sampler, and three freeze and thaw cycles, respectively] and long-term stability (7 d at −80°C).

[2] = Pharmacokinetics of four components of ESZWD in CHF-HKYd rat serum by UPLC-MS/MS; assay type: in vivo; settings: CHF-HKYd rat serum after oral administration of ESZWD, mean ± SD, n = 6
Method: All rats were randomly divided into control group, model group, ESZWD low-dose (3.96 g/kg), medium-dose (7.92 g/kg), high-dose (15.84 g/kg) groups, and positive control group (benazepril, 0.5 mg/kg), with six rats in each group. The CHF-HKYd was established after 1 week of feeding. ESZWD and benazepril were administered by gavage separately for 4 weeks after successful modeling, except for the control group. Blood was collected for 5, 10, 20, 30, 45 min, 1, 2, 4, 6, 8, 12, and 24 h, standing for 2 h and centrifuged at 4°C, 3,500 rpm for 10 min, the supernatant was retained. The state of rats was observed and the urine volume at 24 h was measured. The structure and function of rat heart were evaluated by doppler ultrasonography. Serum biomarkers including myocardial injury indicators NT-proBNP, angiotensinII (AngII), aldosterone (ALD), reactive oxygen species (ROS), superoxide dismutase (SOD), malondialdehyde (MDA), and tumor necrosis factor α (TNF-α) and interleukin 6 (IL-6) were detected by ELISA.
Chromatographic analysis was performed using ACQUITY UPLC BEH C18 column (2.1 × 50 mm, […]), the mobile phase was acetonitrile (A) 0.1% formic acid water (B), the flow rate was set as 0.2 mL·min^−1, the column temperature was 35°C, the injection volume was 2 μL, and the gradient conditions were as follows: 0–8 min: 6–11%A, 8–23 min: 11–19%A, 23–45 min: 19–38%A, 45–55 min: 38–47%A, 55–55.1 min: 47–52%A, 55.1–65 min: 52–90%A, 65–66 min: 90–6%A of UPLC-Q-TOF/MS analysis and 0–3 min: 8–10%A, 3–3.5 min: 10–70% A, 3.5–5: 70–80%A, 5–5.1 min: 80–8% A, 5.1–6 min: 8% A of UPLC-MS/MS.
Mass spectrometric detection of UPLC-MS/MS analysis was carried out on electrospray ionization (ESI) ion source, multiple reaction monitoring (MRM) mode, ion spray voltage of 5,500 V, the curtain gas and collision gas were 40 and 9 kPa, respectively, declustering potential (DP) and collision voltage (CE) are shown in Table 1.

[3] = added 20 ng/mL (salsolinol) or 1 ng/mL (others)
[4] = added 100 ng/mL (salsolinol) or 10 ng/mL (others)
[5] = added 750 ng/mL (salsolinol) or 150 ng/mL (others)

Structure (SMILES)	Stability, Room temperature, Mean ± SD [1, 3] [ng/mL]	Stability, Room temperature, Mean ± SD [1, 4] [ng/mL]	Stability, Room temperature, Mean ± SD [1, 5] [ng/mL]	Stability, Automatic sampler, Mean ± SD [1, 3] [ng/mL]	Stability, Automatic sampler, Mean ± SD [1, 4] [ng/mL]	Stability, Automatic sampler, Mean ± SD [1, 5] [ng/mL]	Stability, Long-term freeze, Mean ± SD [1, 3] [ng/mL]	Stability, Long-term freeze, Mean ± SD [1, 4] [ng/mL]	Stability, Long-term freeze, Mean ± SD [1, 5] [ng/mL]	Stability, Multigelation, Mean ± SD [1, 3] [ng/mL]	Stability, Multigelation, Mean ± SD [1, 4] [ng/mL]	Stability, Multigelation, Mean ± SD [1, 5] [ng/mL]	V/F [2] [L/kg]	also measured
C[C@@H]1NCCc2cc(O)c(O)cc21 [Salsolinol]	21.07 ± 0.74	112.2 ± 4.13	700.5 ± 49.6	20.68 ± 0.61	111.3 ± 2.63	716.3 ± 22.1	20.9 ± 1.2	103.9 ± 6.16	685.1 ± 43.66	21.15 ± 0.54	110.7 ± 1.34	727.6 ± 68.05	40.68 ± 9.03	AUC(0−t) [2]: 2,327 ± 261.0 ng/mL·h; AUC(0−∞) [2]: 2,344 ± 265.7 ng/mL·h; CL/F [2]: 8.625 ± 0.96 L/h/kg; Cmax [2]: 314.2 ± 36.84 ng/mL; T1/2 [2]: 3.271 ± 0.58 h; Tmax [2]: 1.25 ± 0.59 h; T1/2 ([2]; listed as salsolinol): about 3 h
CCN1C[C@]2(COC)[C@H](O)C[C@H](OC)[C@@]34[C@@H]5C[C@@]6(O)[C@H](OC(=O)c7ccccc7)[C@@H]5[C@@](OC(C)=O)([C@@H]([C@H](OC)[C@H]23)[C@@H]14)[C@@H](O)[C@@H]6OC [Aconitine]	1.049 ± 0.05	9.558 ± 0.29	163.7 ± 5.25	1.087 ± 0.12	9.053 ± 0.24	162.6 ± 9.72	1.082 ± 0.05	10.05 ± 0.97	157.4 ± 3.86	1.125 ± 0.11	9.042 ± 0.48	156.9 ± 8.39	2679 ± 1574	AUC(0-inf) ([2]; Sprague-Dawley (SD), in vivo): 50.1 ± 16 ng·h/mL; AUC(0-t) ([2]; Sprague-Dawley (SD), in vivo): 48.9 ± 16.4 ng·h/mL; half-life ([2]; Sprague-Dawley (SD), in vivo): 4.24 ± 1.83 h; CL/F ([2]; Sprague-Dawley (SD), in vivo, read-out: CL/F (converted)): 425 L/h/kg; Cmax ([2]; Sprague-Dawley (SD), in vivo, read-out: Cmax): 8.96 ± 2.22 ng/mL; Tmax ([2]; Sprague-Dawley (SD), in vivo, read-out: Tmax): 0.75 h; half-life ([2]; Sprague-Dawley, in vivo): ~4 h
